Values of other authors as cited in US20080021079A1, “Compounds, Compositions, and Methods” (priority 2003, published 2008).

tested on: A549 cells

Compound | GI50 [nM]
O=c1[nH]cc(F)c(=O)[nH]1 [5-fluorouracil] | 1000
COc1cccc2c1C(=O)c1c(O)c3c(c(O)c1C2=O)C[C@@](O)(C(=O)CO)C[C@@H]3O[C@H]1C[C@H](N)[C@H](O)[C@H](C)O1 [doxorubicin] | 63
NC(=O)NO [hydroxyurea] | 500000
CC(=O)O[C@H]1C(=O)[C@@]2(C)[C@H]([C@H](OC(=O)c3ccccc3)[C@]3(O)C[C@H](OC(=O)[C@H](O)[C@@H](NC(=O)c4ccccc4)c4ccccc4)C(C)=C1C3(C)C)[C@]1(OC(C)=O)CO[C@@H]1C[C@@H]2O [paclitaxel] | 4
